# How the values were obtained:
# [1] = UV-Vis absorption spectra and thermal relaxation of the cis isomers in DMSO; type: physicochemical; conditions: 60 μM in 100% DMSO, 37 °C
# Experimental: (§1) The UV–vis absorbance spectra of all molecules were measured in the dark and after the application of light of different wavelengths ranging from 365 to 770 nm (Figure A and Figures S1–S3). […] Consequently, violet/UV light below 405 nm efficiently promoted photoisomerization, which produced a dramatic decrease in the π-π* band and a significant increase in the n-π* band at around 445 nm (Table ). […] The proportion of molecules at the PSS in trans isomer upon constant illumination with light at 525 nm and cis at 365 nm was in general above 50%, reaching a remarkable >99% for compound 11d (Table and Figures S4 and S5). […] The greater stability of the trans isomer was consistent with previous quantum mechanical and molecular mechanics predictions. Measuring the photoisomerization properties of compound PhotoVDRM allowed us to determine the photoisomerization quantum yields of the compound by solving a differential equation for photoisomerization. We used MATLAB to perform regression and arrive at the following photoisomerization quantum yields: ϕ365 nm (trans) = 0.0427, ϕ365 nm (cis) = 0.0501, ϕ470 nm (trans) = 0.1857, and ϕ470 nm (cis) = 0.2281 (Figure S9). Compound PhotoVDRM was also evaluated in aqueous buffer used for pharmacological experiments (0.5% DMSO) showing a thermal relaxation of 3 h, almost 7 times faster than in pure DMSO (Figure B). […] A deeper photocharacterization of PhotoVDRM allowed us to measure the kinetics of photoconversion upon constant illumination with two wavelengths and three light intensities (Figure D and Figure S10). […] Indeed, with LED devices producing light at intensities as low as 0.05 mW/mm^2 we were able to transform trans to cis in around 15.5 s. This time was reduced to 6 and 2 s when the light intensity was increased to 0.15 and 0.75 mW/mm^2. […] Therefore, we proceeded to test the ability of the chemical library to activate the VDR under different light conditions.
# 2. Photochemical characterization. […]
# (§2) (200 µL per well). The absorption spectra were recorded from 300 to 600 nm with 2 nm fixed intervals using a Tecan Spark 20M Multimode microplate reader. Initial measurements were performed in the dark, followed by spectra acquired immediately after each 3 min period of light irradiation at different wavelengths using 96-well LED array plates (LEDA Teleopto). Theoretical absorbance spectra corresponding to the pure cis isomer (100%) of each compound were calculated in order to obtain the theoretical percentage of cis isomer at each wavelength, according to the method described by Ernst Fischer (1967). Thermal relaxation kinetics of the experimental cis isomers were assessed in quartz cuvettes (10 mm optical path) containing freshly prepared 50 […]
# Dark state absorbance at 365 nm was recorded at 37
# ºC using a ThermoFisher Evolution 350 UV-Vis spectrophotometer. Samples were then irradiated for 3 minutes at 365 nm with a CoolLED pE-4000 light sourceto induce trans → cis photoisomerization.. Absorbance at 365 nm was subsequently monitored over 48 h: every 15 min during the first 24 h, and every 60 min during the following 24 h. Relaxation half-lives were determined by fitting the absorbance-time data to a […] exponential model using GraphPad Prism v10.4.1. […]
# [2] = Proportions of cis and trans at the photostationary state in DMSO from absorbance spectra (Ernst Fischer method); type: physicochemical
# Experimental: 2. Photochemical characterization.
# as §2, with “A 50 µM solution of each compound in DMSO was dispensed into a transparent 96-well plate (200” for “(200”, “(1967).” for “(1967). Thermal relaxation kinetics of the experimental cis isomers were assessed in quartz cuvettes (10 mm optical path) containing freshly prepared 50”
# Table S6. Proportions of cis and trans at the photostationary state in DMSO. […]
# [3] = Photostationary state (PSS) determination by HPLC-MS in aqueous assay buffer; type: physicochemical; conditions: 21 °C, HPLC-MS, 60 μM, aqueous buffer 0.6% DMSO
# Experimental: as §1
# Photostationary state (PSS) determination. In a transparent vial, solutions of the compounds were prepared at a concentration of 60 µM from a 10 mM stock in DMSO, using the assay buffer of pharmacological experiments for dilution. Prior to illumination, a volume of 500 µL was transferred to an amber vial for the "dark" sample. The same procedure was repeated after exposing the transparent vial containing the 60 µM solutions to the following light conditions:
# 365nm for 3 minutes and 525nm for 3 minutes. […]
# difference on isomeric proportions. For each sample, 20 µL was analyzed by HPLC-MS, and the isomer ratios were determined at the isosbestic point.
# Isosbestic point determination. The solvent percentage for the elution of each isomer were calculated based on their retention times from HPLC analysis. Subsequently, 50 µM solutions were prepared from the 10 mM DMSO stock solution of each compound using the previously determined HPLC solvent mixture. The UV spectrum for each solution was recorded after illumination at 365 nm (30 seconds), at 400 nm (30 seconds), and at 525 nm (30 seconds). The spectra were overlaid to identify the isosbestic point of maximum intensity.
# HPLC conditions. Analytical HPLC was performed on a Thermo Ultimate 3000SD (Thermo Scientific Dionex) coupled to a PDA detector and Mass Spectrometer LTQ XL ESI-ion trap (Thermo Scientific). Cromatographic separations were performed using a ZORBAX Eclipse Plus C18 (4.6 x 150mm; 3.5µm) column. The mobile phase consisted of an isocratic mixture of solvent A (water with 0.05% of formic acid) and solvent B (acetonitrile with 0.05% formic acid) at a 3:7 ratio for compounds 10a-d and a 2:3 ratio for compounds 11a-d and 12a-d. […]
# [4] = target: T1, VDR-LBD (Homo sapiens, UniProt P11473); test: HDX-MS of VDR-LBD with ligand in the dark and under 365 nm light; type: binding; conditions: dark vs 365 nm illumination
# T1 construct: VDR-LBD protein stock solution was prepared in 20 mM HEPES buffer
# T1 sequence (P11473 127-423 limits assumed): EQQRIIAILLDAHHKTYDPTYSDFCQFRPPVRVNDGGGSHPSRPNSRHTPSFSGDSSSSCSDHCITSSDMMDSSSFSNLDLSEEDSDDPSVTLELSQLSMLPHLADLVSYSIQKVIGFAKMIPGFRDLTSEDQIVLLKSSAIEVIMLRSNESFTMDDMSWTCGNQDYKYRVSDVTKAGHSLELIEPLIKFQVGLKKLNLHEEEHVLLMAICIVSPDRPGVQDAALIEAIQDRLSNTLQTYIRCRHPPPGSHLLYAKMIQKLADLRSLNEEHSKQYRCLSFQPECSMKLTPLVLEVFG
# Experimental: Although previously used to study the effect of a cyclic azopeptide in its activated cis state, here we studied the target dynamics upon direct application of the light to the sample. To this aim, HDX-MS was applied for the characterization of the binding mode and modulation of receptor dynamics of the racemic compound PhotoVDRM. VDR-LBD was incubated alone (to provide an apo control for each experiment) or with an excess of compound PhotoVDRM and exposed to deuterium labeling for various periods of time, from 10 s to 2 h, in the dark and illuminated with light at 365 nm. […] As an additional control experiment, we also evaluated the HDX-MS of VDR-LBD in the presence and absence of a standard agonist, compound LSN2148936, in the dark and under illumination conditions. […] In order to permit direct comparison, including mathematical manipulation of the data in all these experiments, the observed deuterium incorporation percentages were converted to rate constants (expressed as −log10(k)) using our previously published Bayesian approach.
# (Perkin Elmer, now Revvity, Cat.No. 6006290) in duplicate. Immediately, 54 µL of the protein solution were added and the plate was covered and incubated for 30 min at room temperature in the dark. Meanwhile, the plate with the 10X dilutions was illuminated at 365 nm for 3 min in a 96-well DED array plate (LEDA Teleopto), to allow the photoconversion of the molecules to their cis configuration. The illuminated compounds were mixed with the protein solution and incubated as described above for the plate in the dark. After the incubation time, the counts of both, the dark and illuminated plates, were measured in a Tecan Spark 20M Multimode plate reader with defined settings (excitation: 680 nm, emission: 520-620 nm, excitation time: 100ms, integration time: 300 ms). Biotinylated-His6 peptide (PerkinElmer) was used as a quality control reagent for AlphaScreen® assays and to evaluate compound interaction with the method. […] Dose-response curves and EC50 values were calculated with Graphpad software. […]
# [5] = Serum total calcium measurement in mice (Arsenazo III); type: in vivo; conditions: after treatment i.p. days 2-4 (LSN2148936 0.005 mg/kg, PhotoVDRM 0.5 mg/kg), 420 or 520 nm
# [6] = target: T2, VDR (Homo sapiens, UniProt P11473); test: Luminescent proximity homogeneous assay (AlphaScreen): interaction of purified VDR, RxR and TRAP220 coactivator fragment; type: biochemical
# Experimental: The activity of all molecules was evaluated using a luminescent proximity homogeneous assay to study interactions between purified VDR, RxR and a fragment of the transcriptional coactivator TRAP220 (Supporting Information). This method allowed us to monitor the interaction between TRAP220 and the activated VDR-RxR heterodimer, which is of mechanistic and physiological significance. Both the activation of VDR and the VDR-RxR heterodimer formation are necessary to promote the whole complex association. This system efficiently includes conformational events of the receptor upon activation that go beyond a simple binding measurement. […]
# The activity of all molecules was evaluated using an in-vitro luminescent proximity homogeneous assay by using the Alphascreen technology (Cat No. 6760619R, Perkin Elmer, now Revvity). In a transparent 96-well preplate, 10X concentrations of the compounds were prepared in assay buffer (0.1% bovine serum albumin, 2 mM 1,4-dithiothreitol, 25 mM HEPES and 100 mM NaCl; pH 7.3). LSN2148936 was used as positive control. Purified histidine-tagged VDR (44 µM), flag-RxRa (5.7 µM), biotin tagged TRAP220 transcriptional coactivator (500 µM), and the donor and acceptor beads from the AlphaScreen kit (2 µL/mL each), were diluted in assay buffer. In the dark, 6 µL/well of each test compound were pipetted on a white, shallow 96-well ProxiPlateTM […]
# (Perkin Elmer, now Revvity, Cat.No. 6006290) in duplicate. Immediately, 54 µL of the protein solution were added and the plate was covered and incubated for 30 min at room temperature in the dark. Meanwhile, the plate with the 10X dilutions was illuminated at 365 nm for 3 min in a 96-well DED array plate (LEDA Teleopto), to allow the photoconversion of the molecules to their cis configuration. The illuminated compounds were mixed with the protein solution and incubated as described above for the plate in the dark. After the incubation time, the counts of both, the dark and illuminated plates, were measured in a Tecan Spark 20M Multimode plate reader with defined settings (excitation: 680 nm, emission: 520-620 nm, excitation time: 100ms, integration time: 300 ms). Biotinylated-His6 peptide (PerkinElmer) was used as a quality control reagent for AlphaScreen® assays and to evaluate compound interaction with the method. The raw data were normalized to the effect of the buffer (0%) and the maximum response obtained with LSN2148936 (100%). Dose-response curves and EC50 values were calculated with Graphpad software. Each experiment was performed in triplicate, with 2 replicates per plate.
# 4. Hydrogen/deuterium exchange coupled to mass spectrometry (HDX-MS)
# The HDX-MS experiments were performed with an in-house automated modular system interfaced with an Orbitrap Exploris 480 mass spectrometer.1 Two inter-day experiments were conducted: one in the dark (first day) and one illuminated with 365 nm light (second day). Sample preparation and on-exchange reactions were performed on opaque plates (VWR® Real-Time […]
# mm, Part Nº BC5226) light source was positioned above the Tecan system used for sample preparation. The distance between the UV light and the opaque plates was 80 cm. The 365 nm light illuminated the sample preparation process and the on-exchange reaction on the second day.
# A 10 µM VDR-LBD protein stock solution was prepared in 20 mM HEPES buffer (with 150 mM NaCl, 10 mM D-L Methionine and 5 mM DTT) at pH 7.5. The compound 11b was prepared at 10 mM in DMSO. The protein: compound-complex (1:10 molar ratio) was pre-incubated for 1h before the first on-exchange reaction. The HDX reaction was initiated by a 5-fold dilution of the protein stock solution, in the presence and absence of compound 11b, in the corresponding Deuterated buffer at room temperature. Samples were prepared in parallel with three replicates of […]
# time point, HDX reactions were quenched with a solution of 3 M Urea and 1% TFA (pH 2.5) followed by online proteolysis with an in-house Pepsin immobilized column and desalting […]
# [7] = target: T2, VDR; test: as above; type: biochemical; conditions: UVB narrowband light (315 nm) and visible illumination at 420 nm
# [8] = test system: IL-23-induced psoriatic-like inflammation; test: IL-23-induced mouse model of psoriasis (ear thickness); type: in vivo, C57BL/6N mice; conditions: 420 or 520 nm light regime; i.p. LSN2148936 0.005 mg/kg
# Experimental: Each mice was administered interlueukin 23 (IL-23) once a day for a total of 3 days by intradermal injection (i.d.) into one of the mouse ears. Contralateral ear i.d. injected with PBS was used as control. Subsequently, ear thickness was measured daily, by using a digital caliper, as indicative of psoriasis-course progression (Figure A).
# (A) Temporal scheme for IL-23-induced mouse model of psoriasis. Animals were treated with IL-23 (i.d.) in the left ear during three consecutive days (days 1, 2 and 3). In addition, a contralateral control was performed consisting of PBS administration in the right ear. At day 2, 3, and 4 animals were previously intraperitoneally (i.p.) administered with vehicle (saline) and drugs (i.e., LSN2148936; 0.005 mg/kg and PhotoVDRM; 0.5 mg/kg). Both ears were irradiated with 420 or 520 nm light at day 2, 3, and 4 during 8 min. […] (C) Inflammatory ear response measurements. Mice ear thickness determination in animals administrated (ip) on days 2, 3, and 4 with vehicle, LSN2148936 or PhotoVDRM treated with 420 or 520 nm light. Each day, ear thickness was measured in millimeters and represented as percentage of ear thickness increase using the first measurement of PBS-administrated ear as control. Data is shown as mean ± SD, n = 5 mice per group. Statistical analysis between PhotoVDRM and vehicle. *P < 0.05 and **P < 0.01 Student’s t test.
# [9] = target: T2, VDR; conditions: vs other steroid receptors such as the glucocorticoid; no reference given; cited from earlier work
# T2 sequence (P11473 whole entry, the tested form may be a part): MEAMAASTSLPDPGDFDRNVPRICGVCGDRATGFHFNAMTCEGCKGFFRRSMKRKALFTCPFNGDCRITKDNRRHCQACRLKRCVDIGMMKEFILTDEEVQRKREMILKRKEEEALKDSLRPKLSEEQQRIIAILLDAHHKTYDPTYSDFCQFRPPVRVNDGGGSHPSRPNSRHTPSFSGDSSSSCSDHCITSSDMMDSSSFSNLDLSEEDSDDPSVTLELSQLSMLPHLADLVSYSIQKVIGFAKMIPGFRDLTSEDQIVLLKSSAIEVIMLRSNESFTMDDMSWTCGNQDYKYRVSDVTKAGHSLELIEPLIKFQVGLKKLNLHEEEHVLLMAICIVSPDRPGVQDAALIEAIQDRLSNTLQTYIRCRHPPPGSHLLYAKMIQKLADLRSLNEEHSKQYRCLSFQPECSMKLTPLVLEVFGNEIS
# T2 sequence (P19793 whole entry partner, the tested form may be a part): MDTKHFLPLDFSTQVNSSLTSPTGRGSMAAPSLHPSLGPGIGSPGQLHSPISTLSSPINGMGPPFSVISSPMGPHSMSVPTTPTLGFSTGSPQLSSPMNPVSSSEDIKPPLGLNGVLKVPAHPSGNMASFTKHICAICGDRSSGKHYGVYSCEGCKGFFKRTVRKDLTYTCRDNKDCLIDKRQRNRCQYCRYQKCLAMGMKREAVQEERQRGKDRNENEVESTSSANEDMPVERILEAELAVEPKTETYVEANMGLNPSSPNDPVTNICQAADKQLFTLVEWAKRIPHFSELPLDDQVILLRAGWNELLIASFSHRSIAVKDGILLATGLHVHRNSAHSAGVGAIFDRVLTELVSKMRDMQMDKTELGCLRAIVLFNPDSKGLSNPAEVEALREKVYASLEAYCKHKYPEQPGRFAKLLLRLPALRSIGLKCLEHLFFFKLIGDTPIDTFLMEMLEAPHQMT
# T2 sequence (Q15648 whole entry partner, the tested form may be a part): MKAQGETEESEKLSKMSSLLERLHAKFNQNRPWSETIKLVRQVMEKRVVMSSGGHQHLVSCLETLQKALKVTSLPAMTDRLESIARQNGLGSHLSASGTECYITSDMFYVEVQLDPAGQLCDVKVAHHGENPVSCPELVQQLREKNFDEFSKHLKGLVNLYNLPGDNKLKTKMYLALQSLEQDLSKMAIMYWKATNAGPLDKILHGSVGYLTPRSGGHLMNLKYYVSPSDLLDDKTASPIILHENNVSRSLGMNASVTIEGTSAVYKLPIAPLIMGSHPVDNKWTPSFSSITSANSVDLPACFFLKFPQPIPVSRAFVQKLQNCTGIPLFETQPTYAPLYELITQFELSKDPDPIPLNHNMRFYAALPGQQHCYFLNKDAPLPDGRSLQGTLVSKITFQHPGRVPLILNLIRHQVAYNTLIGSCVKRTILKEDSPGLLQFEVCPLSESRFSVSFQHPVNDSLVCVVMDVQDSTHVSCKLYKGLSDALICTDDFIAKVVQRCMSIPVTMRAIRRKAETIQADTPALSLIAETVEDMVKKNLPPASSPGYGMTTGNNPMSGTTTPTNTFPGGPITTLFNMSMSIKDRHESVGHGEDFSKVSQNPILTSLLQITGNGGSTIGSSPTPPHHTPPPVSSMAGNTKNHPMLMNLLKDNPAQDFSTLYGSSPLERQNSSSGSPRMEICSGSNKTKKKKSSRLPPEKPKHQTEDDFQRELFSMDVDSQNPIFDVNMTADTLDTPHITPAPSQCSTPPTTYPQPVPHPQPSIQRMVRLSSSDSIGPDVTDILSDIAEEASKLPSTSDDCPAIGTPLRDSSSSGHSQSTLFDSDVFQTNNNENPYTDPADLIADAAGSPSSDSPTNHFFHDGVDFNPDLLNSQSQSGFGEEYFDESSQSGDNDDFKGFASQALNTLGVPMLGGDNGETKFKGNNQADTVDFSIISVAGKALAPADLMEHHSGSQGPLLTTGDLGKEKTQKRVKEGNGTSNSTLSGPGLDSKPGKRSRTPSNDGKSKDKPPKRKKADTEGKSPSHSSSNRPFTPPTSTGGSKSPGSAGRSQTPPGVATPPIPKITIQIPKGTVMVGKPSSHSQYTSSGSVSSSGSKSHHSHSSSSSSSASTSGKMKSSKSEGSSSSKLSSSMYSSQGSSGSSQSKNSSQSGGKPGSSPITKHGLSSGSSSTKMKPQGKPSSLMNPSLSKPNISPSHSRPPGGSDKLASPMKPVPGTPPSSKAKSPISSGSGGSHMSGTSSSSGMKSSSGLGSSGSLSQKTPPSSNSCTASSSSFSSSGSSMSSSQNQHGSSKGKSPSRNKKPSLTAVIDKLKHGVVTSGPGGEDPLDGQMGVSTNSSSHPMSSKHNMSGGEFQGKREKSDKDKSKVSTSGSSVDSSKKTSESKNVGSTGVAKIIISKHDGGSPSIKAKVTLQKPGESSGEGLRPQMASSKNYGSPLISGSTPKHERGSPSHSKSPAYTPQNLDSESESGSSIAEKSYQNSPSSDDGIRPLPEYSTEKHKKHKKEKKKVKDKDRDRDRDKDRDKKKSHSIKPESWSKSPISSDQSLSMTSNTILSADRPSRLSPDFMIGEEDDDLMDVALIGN
structure (smiles),measurement,setting,value
Cc1cc(/N=N/c2cccc(-c3ccc(CO)cc3C)c2)ccc1OCC(O)C(C)(C)C (centres unmarked) [Compound 12c],t 1/2 (thermal relaxation of cis),[1],23.2 h
same,λn−π* (cis),[1]; after illumination,444 nm
same,λπ–π* (trans),[1]; dark,364 nm
same,%cis at the photostationary state,[2]; 365 nm,"96,95%"
same,%trans at the photostationary state,[2]; 365 nm,"3,05%"
same,%cis at the photostationary state,[2]; 380 nm,"95,69%"
same,%trans at the photostationary state,[2]; 380 nm,"4,31%"
same,%cis at the photostationary state,[2]; 405 nm,"59,74%"
same,%trans at the photostationary state,[2]; 405 nm,"40,26%"
same,%cis at the photostationary state,[2]; 420 nm,"56,13%"
same,%trans at the photostationary state,[2]; 420 nm,"43,87%"
same,%cis at the photostationary state,[2]; 470 nm,"28,95%"
same,%trans at the photostationary state,[2]; 470 nm,"71,05%"
same,%cis at the photostationary state,[2]; 500 nm,"30,48%"
same,%trans at the photostationary state,[2]; 500 nm,"69,52%"
same,%cis at the photostationary state,[2]; 530 nm,"26,87%"
same,%trans at the photostationary state,[2]; 530 nm,"73,13%"
same,PSS365 (% cis),[3]; 3 min illumination 365 nm,87%
same,PSS525 (%trans),[3]; 3 min illumination 525 nm,86%
"CCC(CC)(c1ccc(CCC(O)C(C)(C)C)c(C)c1)c1ccc(C(=O)N(C)CC(=O)O)c(C)c1 (centres unmarked) [LSN2148936, reference compound]",light-dependent changes of HDX behavior,[4],no significant light-dependent changes
same,effect on calcium homeostasis (serum total calcium),[5],significant effects
same,Emax,"[6]; after illumination (365 nm) for 3 min, normalized to maximum response of LSN2148936 (100%), mean ± SEM",107 ± 0.08%
same,effect of application of light on activity (control),[6]; dark vs 365 nm,not affected
same,modulation of activity by light,[7],not
same,IL-23-induced ear inflammation (ear thickness),[8],prevented IL-23-associated inflammatory response
same,selectivity for VDR,[9],highly selective

# Reference: paper PMC12746157, “Light-Regulated Agonists Spatiotemporally Activating the Vitamin D Receptor Mitigate Psoriasis-like Inflammation in Mice without Inducing Hypercalcemia” (ACS Central Science, 2025)
